Consider 14 compounds from US20100035926A1, “PYRAZOLE DERIVATIVES AS NON-STEROIDAL GLUCOCORTICOID RECEPTOR LIGANDS” (priority 2006, published 2010).

Where two headings read alike, the source gives them in different places.

One assay has as its target T1, glucocorticoid receptor (Homo sapiens, UniProt P04150).
T1 construct: a partially purified full length glucocorticoid receptor
T1 sequence (P04150 1-777): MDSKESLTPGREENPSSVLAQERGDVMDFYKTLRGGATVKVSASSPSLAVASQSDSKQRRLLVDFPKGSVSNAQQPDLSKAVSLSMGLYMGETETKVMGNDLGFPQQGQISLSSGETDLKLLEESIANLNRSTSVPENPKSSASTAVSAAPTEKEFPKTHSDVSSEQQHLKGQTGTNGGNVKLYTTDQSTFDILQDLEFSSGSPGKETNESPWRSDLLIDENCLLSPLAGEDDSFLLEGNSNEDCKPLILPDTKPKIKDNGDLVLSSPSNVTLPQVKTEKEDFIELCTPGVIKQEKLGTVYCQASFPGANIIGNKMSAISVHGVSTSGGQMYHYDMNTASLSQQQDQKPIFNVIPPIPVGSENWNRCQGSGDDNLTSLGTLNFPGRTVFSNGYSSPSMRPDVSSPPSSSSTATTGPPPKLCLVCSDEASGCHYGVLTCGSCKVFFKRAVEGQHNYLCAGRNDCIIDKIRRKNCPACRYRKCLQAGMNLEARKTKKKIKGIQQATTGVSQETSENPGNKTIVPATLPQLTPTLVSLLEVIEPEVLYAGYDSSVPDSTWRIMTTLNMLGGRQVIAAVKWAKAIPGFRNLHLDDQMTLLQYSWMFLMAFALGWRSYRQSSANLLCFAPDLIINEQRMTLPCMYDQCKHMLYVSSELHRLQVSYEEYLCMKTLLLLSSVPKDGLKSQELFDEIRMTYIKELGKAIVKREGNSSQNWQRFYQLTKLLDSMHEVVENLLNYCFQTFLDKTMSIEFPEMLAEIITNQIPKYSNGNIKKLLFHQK
Nature of the assay: Glucocorticoid Receptor Binding Assay (fluorescence polarisation, displacement of Alexa 555 labelled dexamethasone derivative). The settings on record: at least once in this assay; read-out: glucocorticoid binding pIC50 (converted). As for the experimental part: Compounds were solvated and diluted in DMSO, and transferred directly into assay plates. Fluorescent dexamethasone and a partially purified full length glucocorticoid receptor were added to the plates, together with buffer components to stabilise the GR protein and incubated at room temperature for 2 hr in the dark. Binding of each compound was assessed by analysing the displacement of fluorescent ligand by measuring the decrease in fluorescence polarisation signal from the mixture.
(In general: In fluorescence polarisation assays a small probe gives low polarisation when free and higher when bound to something large.)

Assay [1] addresses T2, GR (Homo sapiens, UniProt P04150).
T2 construct: endogenous in cells; host or cells: A549 (human lung carcinoma, ECACC No. 86012804), stably transfected with reporter plasmids only
T2 sequence (P04150 1-777): T1 sequence (P04150 1-777)
Nature of the assay: GR Agonist Assay - MMTV Assay (A549 MMTV cells, renilla luciferase reporter). In kind it is cell-based. The settings on record: 6 h, agonists, read-out: average maximum asymptote in the MMTV agonist assay. As for the experimental part:
Stimulation of the cell line with GR agonists results in intracellular signal transduction and ultimately translocation of GR into the nucleus. This activates the inserted DNA sequence resulting in transcription of the integrated luciferase gene, which is quantified using a light emission. The stably transfected cell line was grown as a monolayer in DMEM supplemented with FCS-HI (10%), Non-essential amino acids (1%), L-Glutamine (2 mM), Pen/Strep (1%) and Geneticin (50 mg/ml).
A 90% confluent T175 flask of A549 MMTV cells was harvested by centrifugation for 5 min at 200 g, resuspended in assay buffer (DMEM supplemented with 10% FCS 2×HI, 2 mM Glutamax, Non essential amino acids and 25 mM HEPES) and diluted to 0.1×10^6/ml. 70 μl of cell solution was dispensed to each well of white Nunc 384-well plates, containing compound at the required concentration. […] The plates were covered to protect the reagents from light, and then incubated at room temperature for approximately 15 mins before reading them on a Viewlux.
On the technique in general: Reporter assays use an easily measured gene product as a stand-in for the process of interest.

Assay [2] concerns the target T2, GR. The assay can be described thus: GR Functional Assay - NFκB Assay (A549 SPAP cells, TNFα stimulated). The settings on record: for Emax: agonists, read-out: average maximum asymptote in the NFkB assay. Type of assay: cell-based. As for the experimental part: Stimulation of the cell line with TNFα results in intracellular signal transduction and ultimately translocation of NFκB into the nucleus. This activates the inserted DNA sequence resulting in transcription of the integrated SPAP gene, which is quantified using a calorimetric assay. […] The stably transfected cell line was grown as a monolayer in DMEM supplemented with FCS-HI (10%), Non-essential amino acids (1%), L-Glutamine (2 mM), Pen/Strep (1%) and Geneticin (50 mg/ml).
A 70% confluent T225 flask of A549 SPAP cells was harvested by centrifugation for 5 mins at 200 g, resuspended in assay buffer (DMEM supplemented with 10% FCS 2×HI, 2 mM L-Glutamine, 1% Pen/Strep and Non essential amino acids) and diluted to 0.16×10^6/ml. 60 μl of cell solution was dispensed to each well of clear Nunc 384-well plates, containing compound at the required concentration. […] Plates were equilibrated to room temperature for 1 hr prior to the addition of 25 μl of pNPP buffer (1M Diethanolamine pH 9.8, 0.5 mM MgCl2, 0.28M NaCl, 2 mg/ml pNPP) to each well of assay plates.

Where [3] appears, read: at least once in the NFkB assay, A549 SPAP cells, read-out: pIC50 in the NFkB assay (converted).
[4] abbreviates: at least once, examples listed as agonists in NFkB and MMTV assays, read-out: potency pIC50 in the NFKB assay (converted).

On to `CN(CC(O)(CNC(=O)c1cnn(-c2ccc(F)cc2)c1N)C(F)(F)F)C(=O)c1cccc(C(F)(F)F)c1` (racemic) [Example 26 (racemic), 5-amino-1-(4-fluorophenyl)-N-{3,3,3-trifluoro-2-hydroxy-2-[(methyl{[3-(trifluoromethyl)phenyl]carbonyl}amino)methyl]propyl}-1H-pyrazole-4-carboxamide], for which the IC50 on glucocorticoid receptor is < 1000 nM.
As to `CCN(CC(O)(CNC(=O)c1cnn(-c2ccc(F)cc2)c1N)C(F)(F)F)C(=O)c1cccc(C(F)(F)F)c1` (racemic) [Example 20 (racemic), 5-amino-N-{2-[(ethyl{[3-(trifluoromethyl)phenyl]carbonyl}amino)methyl]-3,3,3-trifluoro-2-hydroxypropyl}-1-(4-fluorophenyl)-1H-pyrazole-4-carboxamide], the Emax on GR [1] and on GR [2] (A549 SPAP cells) was ≥ 40% in each case. Further, the IC50 at glucocorticoid receptor was < 1000 nM; at GR [2] (setting [3]), < 1000 nM; on GR [2] (setting [4]), < 316 nM.
For the compound `CCN(CC(O)(CNC(=O)c1cnn(-c2ccc(F)cc2)c1N)C(F)(F)F)C(=O)c1cccc(C(C)=O)c1` (racemic) [Example 22 (racemic), N-(2-{[[(3-acetylphenyl)car-bonyl](ethyl)amino]methyl}-3,3,3-trifluoro-2-hydroxypropyl)-5-amino-1-(4-fluorophenyl)-1H-pyrazole-4-carboxamide], at glucocorticoid receptor, the IC50 was < 1000 nM.
Turning to `CCN(CC(O)(CNC(=O)c1cnn(-c2ccc(F)cc2)c1N)C(F)(F)F)C(=O)c1ccccc1C(C)=O` (racemic) [Example 13 (racemic), N-(2-{[[(2-acetylphenyl)car-bonyl](ethyl)amino]methyl}-3,3,3-trifluoro-2-hydroxypropyl)-5-amino-1-(4-fluorophenyl)-1H-pyrazole-4-carboxamide], the Emax on GR [1] and on GR [2] (A549 SPAP cells) was ≥ 40% throughout. Further, the results for the IC50 at glucocorticoid receptor and at GR [2] (setting [4]) were < 1000 nM and < 316 nM, respectively.
For the compound `Nc1c(C(=O)NCC(O)(CN(CCF)C(=O)c2ccccc2)C(F)(F)F)cnn1-c1ccc(F)cc1` (single isomer, unassigned) [Example 1 Enantiomer 2, 5-Amino-1-(4-fluorophenyl)-N-(3,3,3-trifluoro-2-{[(2-fluoroethyl)(phenylcarbonyl)amino]methyl}-2-hydroxypropyl)-1H-pyrazole-4-carboxamide], the Emax at GR [1] and at GR [2] (A549 SPAP cells) was ≥ 40% each time. At GR [2] (setting [4]), the IC50 is < 316 nM.
For the compound `CCN(CC(O)(CNC(=O)c1cnn(-c2ccc(F)cc2)c1N)C(F)(F)F)C(=O)c1ccc(F)cc1Cl` (racemic) [Example 23 (racemic), 5-amino-N-(2-{[[(2-chloro-4-fluorophenyl)car-bonyl](ethyl)amino]methyl}-3,3,3-trifluoro-2-hydroxypropyl)-1-(4-fluorophenyl)-1H-pyrazole-4-carboxamide], the Emax at GR [1] and at GR [2] (A549 SPAP cells) was ≥ 40% in each case. In addition, the values for the IC50 on glucocorticoid receptor, at GR [2] (setting [3]) and at GR [2] (setting [4]) were < 1000 nM, < 1000 nM and < 316 nM, respectively.
In the case of `CCN(CC(O)(CNC(=O)c1cnn(-c2ccc(F)cc2)c1N)C(F)(F)F)C(=O)c1ccc(F)c(F)c1` (racemic) [Example 21 (racemic), 5-amino-N-(2-{[[(3,4-difiuorophenyl)car-bonyl](ethyl)amino]methyl}-3,3,3-trifluoro-2-hydroxypropyl)-1-(4-fluorophenyl)-1H-pyrazole-4-carboxamide], the IC50 at glucocorticoid receptor and at GR [2] (setting [3]) was < 1000 nM each time.
Take `CCN(CC(O)(CNC(=O)c1cnn(-c2ccc(F)cc2)c1N)C(F)(F)F)C(=O)c1ccccc1` (single isomer, unassigned) [Example 14 Enantiomer 2, 5-amino-N-(2-{[ethyl(phenylcar-bonyl)amino]methyl}-3,3,3-trifluoro-2-hydroxypropyl)-1-(4-fluorophenyl)-1H-pyrazole-4-carboxamide]: the Emax at GR [1] and at GR [2] (A549 SPAP cells) was ≥ 40% throughout. The IC50 is < 1000 nM on GR [2] (setting [3]) and < 316 nM on GR [2] (setting [4]).
With `Nc1c(C(=O)NCC(O)(CN(CCF)C(=O)c2ccccc2OC(F)F)C(F)(F)F)cnn1-c1ccc(F)cc1` (racemic) [Example 11 (racemic), 5-amino-N-(2-{[({2-[(difluoromethyl)oxy]phenyl}carbonyl) (2-fluoroethyl)amino]methyl}-3,3,3-trifluoro-2-hydroxypropyl)-1-(4-fluorophenyl)-1H-pyrazole-4-carboxamide], the Emax on GR [1] and on GR [2] (A549 SPAP cells) was ≥ 40% each time. For the same compound, the IC50 at GR [2] (setting [4]) is < 316 nM.
Take `CN(CC(O)(CNC(=O)c1cnn(-c2ccc(F)cc2)c1N)C(F)(F)F)C(=O)c1ncccc1F` (racemic) [Example 29 (racemic), N-{2-[({[5-amino-1-(4-fluorophenyl)-1H-pyrazol-4-yl]carbonyl}amino)methyl]-3,3,3-trifluoro-2-hydroxypropyl}-3-fluoro-N-methyl-2-pyridinecarboxamide]: the IC50 on GR [2] (setting [3]) is < 1000 nM.
As for `CCN(CC(O)(CNC(=O)c1cnn(-c2ccccc2Cl)c1N)C(F)(F)F)C(=O)c1ccccc1` (racemic) [Example 36 (racemic), 5-amino-1-(2-chlorophenyl)-N-(2-{[ethyl(phenylcar-bonyl)amino]methyl}-3,3,3-trifluoro-2-hydroxypropyl)-1H-pyrazole-4-carboxamide], the IC50 on glucocorticoid receptor is < 1000 nM.
On the same count and under the same terms, in the case of `CCN(CC(O)(CNC(=O)c1cnn(-c2ccc(F)cc2)c1N)C(F)(F)F)C(=O)c1ccc(Cl)cc1` (racemic) [Example 19 (racemic), 5-amino-N-(2-{[[(4-chlorophenyl)car-bonyl](ethyl)amino]methyl}-3,3,3-trifluoro-2-hydroxypropyl)-1-(4-fluorophenyl)-1H-pyrazole-4-carboxamide] it was < 1000 nM.
Consider `CN(CC(O)(CNC(=O)c1cnn(-c2ccc(F)cc2)c1N)C(F)(F)F)C(=O)c1ccccc1` (racemic) [Example 25 (racemic), 5-amino-1-(4-fluorophenyl)-N-(3,3,3-trifluoro-2-hydroxy-2-{[methyl(phenylcarbonyl)amino]methyl}propyl)-1H-pyrazole-4-carboxamide], for which the IC50 on glucocorticoid receptor and at GR [2] (setting [3]) was < 1000 nM in each case.
`CN(CC(O)(CNC(=O)c1cnn(-c2ccc(F)cc2)c1N)C(F)(F)F)C(=O)c1cccc2cccnc12` (racemic) [Example 42 (racemic), N-{2-[({[5-amino-1-(4-fluorophenyl)-1H-pyrazol-4-yl]carbonyl}amino)methyl]-3,3,3-trifluoro-2-hydroxypropyl}-N-methyl-8-quinolinecarboxamide]: the Emax on GR [1] and on GR [2] (A549 SPAP cells) was ≥ 40% throughout. The IC50 at GR [2] (setting [4]) was < 316 nM.
